We go through 25 substances from the OligoGym collection.

HELM strings list units from the 5' end as sugar, base in round brackets, then linkage (d deoxyribose, r ribose, m 2'-O-methyl, p phosphodiester). [sp] = phosphorothioate linkage

In data set [1] the target is CDKN2B-AS1. Briefly: HEK293-TLR7, 100 nM ASO, then resiquimod.
Data set [2] deals with CDKN2B-AS1. The data set can be described thus: HEK293-TLR8, 100 nM ASO, then resiquimod.

Regarding “RNA1{m(A)[sp].m(A)[sp].m(A)[sp].m(A)[sp].m(G)[sp].d(A)[sp].d(T)[sp].d(T)[sp].d(A)[sp].d(T)[sp].d(C)[sp].d(T)[sp].d(T)[sp].d(C)[sp].d(T)[sp].m(U)[sp].m(U)[sp].m(U)[sp].m(A)[sp].m(A)}$$$$”, the TLR7 signal (NF-kB luciferase) (% of resiquimod alone) in data set [1] came out at 47.4. Moreover, the TLR8 potentiation (NF-kB luciferase) (fold of resiquimod alone) in data set [2] was 3.19.
As to “RNA1{m(A)[sp].m(A)[sp].m(A)[sp].m(A)[sp].m(U)[sp].d(A)[sp].d(A)[sp].d(G)[sp].d(G)[sp].d(G)[sp].d(G)[sp].d(A)[sp].d(A)[sp].d(T)[sp].d(A)[sp].m(G)[sp].m(G)[sp].m(G)[sp].m(G)[sp].m(A)}$$$$”, the TLR7 signal (NF-kB luciferase) (% of resiquimod alone) in data set [1] stood at 68.5. For the same substance, in data set [2], the TLR8 potentiation (NF-kB luciferase) (fold of resiquimod alone) amounted to 0.86.
On the same counts, the results for “RNA1{m(A)[sp].m(A)[sp].m(A)[sp].m(G)[sp].m(A)[sp].d(T)[sp].d(T)[sp].d(A)[sp].d(T)[sp].d(C)[sp].d(T)[sp].d(T)[sp].d(C)[sp].d(T)[sp].d(T)[sp].m(U)[sp].m(U)[sp].m(A)[sp].m(A)[sp].m(U)}$$$$” are 49.3 and 2.96.
“RNA1{m(A)[sp].m(A)[sp].m(A)[sp].m(G)[sp].m(C)[sp].d(A)[sp].d(G)[sp].d(T)[sp].d(C)[sp].d(T)[sp].d(C)[sp].d(C)[sp].d(A)[sp].d(T)[sp].d(G)[sp].m(U)[sp].m(C)[sp].m(C)[sp].m(C)[sp].m(A)}$$$$” returned a TLR7 signal (NF-kB luciferase) (% of resiquimod alone) in data set [1] of 27.2. In addition, the TLR8 potentiation (NF-kB luciferase) (fold of resiquimod alone) in data set [2] was 1.9.
“RNA1{m(A)[sp].m(A)[sp].m(G)[sp].m(A)[sp].m(U)[sp].d(T)[sp].d(A)[sp].d(T)[sp].d(C)[sp].d(T)[sp].d(T)[sp].d(C)[sp].d(T)[sp].d(T)[sp].d(T)[sp].m(U)[sp].m(A)[sp].m(A)[sp].m(U)[sp].m(U)}$$$$” gave a TLR7 signal (NF-kB luciferase) (% of resiquimod alone) in data set [1] of 42.1. In addition, the TLR8 potentiation (NF-kB luciferase) (fold of resiquimod alone) in data set [2] is 2.91.
Turning to “RNA1{m(A)[sp].m(A)[sp].m(G)[sp].m(C)[sp].m(A)[sp].d(G)[sp].d(T)[sp].d(C)[sp].d(T)[sp].d(C)[sp].d(C)[sp].d(A)[sp].d(T)[sp].d(G)[sp].d(T)[sp].m(C)[sp].m(C)[sp].m(C)[sp].m(A)[sp].m(G)}$$$$”, in data set [1], the TLR7 signal (NF-kB luciferase) (% of resiquimod alone) is 35.7. The TLR8 potentiation (NF-kB luciferase) (fold of resiquimod alone) in data set [2] worked out at 1.79.
“RNA1{m(A)[sp].m(A)[sp].m(G)[sp].m(G)[sp].m(U)[sp].d(G)[sp].d(G)[sp].d(C)[sp].d(C)[sp].d(A)[sp].d(C)[sp].d(A)[sp].d(G)[sp].d(G)[sp].d(C)[sp].m(A)[sp].m(A)[sp].m(C)[sp].m(G)[sp].m(U)}$$$$” yielded a TLR7 signal (NF-kB luciferase) (% of resiquimod alone) in data set [1] of 57.9. Also, in data set [2], the TLR8 potentiation (NF-kB luciferase) (fold of resiquimod alone) came to 0.58.
As to “RNA1{m(A)[sp].m(A)[sp].m(U)[sp].m(A)[sp].m(U)[sp].d(C)[sp].d(T)[sp].d(G)[sp].d(C)[sp].d(T)[sp].d(G)[sp].d(C)[sp].d(C)[sp].d(C)[sp].d(A)[sp].m(C)[sp].m(C)[sp].m(U)[sp].m(U)[sp].m(C)}$$$$”, in data set [1], the TLR7 signal (NF-kB luciferase) (% of resiquimod alone) was determined as 43.7. In data set [2], the TLR8 potentiation (NF-kB luciferase) (fold of resiquimod alone) stood at 1.79.
Consider “RNA1{m(A)[sp].m(A)[sp].m(U)[sp].m(U)[sp].m(U)[sp].d(A)[sp].d(A)[sp].d(A)[sp].d(G)[sp].d(C)[sp].d(A)[sp].d(T)[sp].d(G)[sp].d(A)[sp].d(A)[sp].m(U)[sp].m(A)[sp].m(U)[sp].m(U)[sp].m(A)}$$$$”, for which the TLR7 signal (NF-kB luciferase) (% of resiquimod alone) in data set [1] is 46.8. Besides, the TLR8 potentiation (NF-kB luciferase) (fold of resiquimod alone) in data set [2] is 3.29.
Substance “RNA1{m(A)[sp].m(G)[sp].m(A)[sp].m(A)[sp].m(A)[sp].d(G)[sp].d(A)[sp].d(A)[sp].d(G)[sp].d(C)[sp].d(A)[sp].d(A)[sp].d(A)[sp].d(G)[sp].d(A)[sp].m(U)[sp].m(U)[sp].m(C)[sp].m(A)[sp].m(A)}$$$$” yielded a TLR7 signal (NF-kB luciferase) (% of resiquimod alone) in data set [1] of 43. Also, the TLR8 potentiation (NF-kB luciferase) (fold of resiquimod alone) in data set [2] is 1.96.
In data set [1], “RNA1{m(A)[sp].m(G)[sp].m(A)[sp].m(U)[sp].m(U)[sp].d(A)[sp].d(T)[sp].d(C)[sp].d(T)[sp].d(T)[sp].d(C)[sp].d(T)[sp].d(T)[sp].d(T)[sp].d(T)[sp].m(A)[sp].m(A)[sp].m(U)[sp].m(U)[sp].m(U)}$$$$” showed a TLR7 signal (NF-kB luciferase) (% of resiquimod alone) of 37.1. The TLR8 potentiation (NF-kB luciferase) (fold of resiquimod alone) in data set [2] was 3.02.
Substance “RNA1{m(A)[sp].m(G)[sp].m(C)[sp].m(A)[sp].m(G)[sp].d(T)[sp].d(C)[sp].d(T)[sp].d(C)[sp].d(C)[sp].d(A)[sp].d(T)[sp].d(G)[sp].d(T)[sp].d(C)[sp].m(C)[sp].m(C)[sp].m(A)[sp].m(G)[sp].m(G)}$$$$” had a TLR7 signal (NF-kB luciferase) (% of resiquimod alone) in data set [1] of 25.5. Besides, the TLR8 potentiation (NF-kB luciferase) (fold of resiquimod alone) in data set [2] is 2.81.
In turn, “RNA1{m(A)[sp].m(G)[sp].m(G)[sp].m(A)[sp].m(U)[sp].d(T)[sp].d(A)[sp].d(A)[sp].d(A)[sp].d(A)[sp].d(C)[sp].d(A)[sp].d(G)[sp].d(A)[sp].d(T)[sp].m(U)[sp].m(A)[sp].m(A)[sp].m(U)[sp].m(A)}$$$$” yielded a TLR7 signal (NF-kB luciferase) (% of resiquimod alone) in data set [1] of 36.3. The TLR8 potentiation (NF-kB luciferase) (fold of resiquimod alone) in data set [2] came out at 2.19.
With “RNA1{m(A)[sp].m(G)[sp].m(G)[sp].m(C)[sp].m(C)[sp].d(T)[sp].d(C)[sp].d(C)[sp].d(A)[sp].d(G)[sp].d(T)[sp].d(G)[sp].d(T)[sp].d(C)[sp].d(T)[sp].m(U)[sp].m(C)[sp].m(U)[sp].m(C)[sp].m(C)}$$$$”, the TLR7 signal (NF-kB luciferase) (% of resiquimod alone) in data set [1] was found to be 44.7. Besides, the TLR8 potentiation (NF-kB luciferase) (fold of resiquimod alone) in data set [2] came to 2.19.
On the same counts, the results for “RNA1{m(A)[sp].m(G)[sp].m(U)[sp].m(C)[sp].m(U)[sp].d(C)[sp].d(C)[sp].d(A)[sp].d(T)[sp].d(G)[sp].d(T)[sp].d(C)[sp].d(C)[sp].d(C)[sp].d(A)[sp].m(G)[sp].m(G)[sp].m(C)[sp].m(C)[sp].m(U)}$$$$” are 35.8 and 1.64.
The substance “RNA1{m(A)[sp].m(G)[sp].m(U)[sp].m(G)[sp].m(G)[sp].d(C)[sp].d(A)[sp].d(C)[sp].d(A)[sp].d(T)[sp].d(A)[sp].d(C)[sp].d(C)[sp].d(A)[sp].d(C)[sp].m(A)[sp].m(C)[sp].m(C)[sp].m(C)[sp].m(U)}$$$$” showed a TLR7 signal (NF-kB luciferase) (% of resiquimod alone) in data set [1] of 42. For the same substance, the TLR8 potentiation (NF-kB luciferase) (fold of resiquimod alone) in data set [2] was 2.24.
On the same counts, the results for “RNA1{m(A)[sp].m(U)[sp].m(A)[sp].m(U)[sp].m(C)[sp].d(T)[sp].d(G)[sp].d(C)[sp].d(T)[sp].d(G)[sp].d(C)[sp].d(C)[sp].d(C)[sp].d(A)[sp].d(C)[sp].m(C)[sp].m(U)[sp].m(U)[sp].m(C)[sp].m(U)}$$$$” are 47.5 and 2.55.
As to “RNA1{m(A)[sp].m(U)[sp].m(U)[sp].m(U)[sp].m(C)[sp].d(C)[sp].d(A)[sp].d(C)[sp].d(A)[sp].d(T)[sp].d(G)[sp].d(C)[sp].d(C)[sp].d(C)[sp].d(A)[sp].m(G)[sp].m(U)[sp].m(G)[sp].m(U)[sp].m(U)}$$$$”, the TLR7 signal (NF-kB luciferase) (% of resiquimod alone) in data set [1] is 32. For the same substance, the TLR8 potentiation (NF-kB luciferase) (fold of resiquimod alone) in data set [2] worked out at 2.06.
For “RNA1{m(C)[sp].m(A)[sp].m(G)[sp].m(G)[sp].m(C)[sp].d(C)[sp].d(T)[sp].d(C)[sp].d(C)[sp].d(A)[sp].d(G)[sp].d(T)[sp].d(G)[sp].d(T)[sp].d(C)[sp].m(U)[sp].m(U)[sp].m(C)[sp].m(U)[sp].m(C)}$$$$”, the TLR7 signal (NF-kB luciferase) (% of resiquimod alone) in data set [1] is 54.1. Moreover, the TLR8 potentiation (NF-kB luciferase) (fold of resiquimod alone) in data set [2] is 2.02.
Consider “RNA1{m(C)[sp].m(A)[sp].m(G)[sp].m(U)[sp].m(C)[sp].d(T)[sp].d(C)[sp].d(C)[sp].d(A)[sp].d(T)[sp].d(G)[sp].d(T)[sp].d(C)[sp].d(C)[sp].d(C)[sp].m(A)[sp].m(G)[sp].m(G)[sp].m(C)[sp].m(C)}$$$$”, for which, in data set [1], the TLR7 signal (NF-kB luciferase) (% of resiquimod alone) came out at 47.8. Also, in data set [2], the TLR8 potentiation (NF-kB luciferase) (fold of resiquimod alone) is 2.73.
Take “RNA1{m(C)[sp].m(A)[sp].m(G)[sp].m(U)[sp].m(G)[sp].d(T)[sp].d(T)[sp].d(T)[sp].d(T)[sp].d(T)[sp].d(A)[sp].d(A)[sp].d(T)[sp].d(T)[sp].d(T)[sp].m(U)[sp].m(G)[sp].m(U)[sp].m(A)[sp].m(G)}$$$$”: the TLR7 signal (NF-kB luciferase) (% of resiquimod alone) in data set [1] was 62.7. Moreover, the TLR8 potentiation (NF-kB luciferase) (fold of resiquimod alone) in data set [2] was 3.18.
Take “RNA1{m(C)[sp].m(C)[sp].m(A)[sp].m(U)[sp].m(G)[sp].d(T)[sp].d(C)[sp].d(C)[sp].d(C)[sp].d(A)[sp].d(G)[sp].d(G)[sp].d(C)[sp].d(C)[sp].d(T)[sp].m(C)[sp].m(C)[sp].m(A)[sp].m(G)[sp].m(U)}$$$$”: the TLR7 signal (NF-kB luciferase) (% of resiquimod alone) in data set [1] is 41.4. Also, in data set [2], the TLR8 potentiation (NF-kB luciferase) (fold of resiquimod alone) was 1.24.
“RNA1{m(C)[sp].m(C)[sp].m(U)[sp].m(A)[sp].m(G)[sp].d(A)[sp].d(A)[sp].d(A)[sp].d(G)[sp].d(A)[sp].d(A)[sp].d(G)[sp].d(C)[sp].d(A)[sp].d(A)[sp].m(A)[sp].m(G)[sp].m(A)[sp].m(U)[sp].m(U)}$$$$” registered a TLR7 signal (NF-kB luciferase) (% of resiquimod alone) in data set [1] of 57.2. For the same substance, the TLR8 potentiation (NF-kB luciferase) (fold of resiquimod alone) in data set [2] was found to be 3.58.
As to “RNA1{m(C)[sp].m(U)[sp].m(C)[sp].m(U)[sp].m(C)[sp].d(T)[sp].d(T)[sp].d(T)[sp].d(C)[sp].d(T)[sp].d(G)[sp].d(T)[sp].d(G)[sp].d(G)[sp].d(T)[sp].m(U)[sp].m(U)[sp].m(C)[sp].m(U)[sp].m(C)}$$$$”, the TLR7 signal (NF-kB luciferase) (% of resiquimod alone) in data set [1] was determined as 92.3. Besides, the TLR8 potentiation (NF-kB luciferase) (fold of resiquimod alone) in data set [2] worked out at 3.82.
“RNA1{m(C)[sp].m(U)[sp].m(U)[sp].m(C)[sp].m(A)[sp].d(C)[sp].d(A)[sp].d(T)[sp].d(C)[sp].d(C)[sp].d(A)[sp].d(A)[sp].d(G)[sp].d(A)[sp].d(C)[sp].m(A)[sp].m(G)[sp].m(C)[sp].m(A)[sp].m(A)}$$$$” yielded a TLR7 signal (NF-kB luciferase) (% of resiquimod alone) in data set [1] of 55. Further, in data set [2], the TLR8 potentiation (NF-kB luciferase) (fold of resiquimod alone) is 2.26.
